{"source": "patent US20240210412A1", "about": "“SULFONYL-TRIAZOLE COMPOUNDS USEFUL AS LIGANDS AND INHIBITORS OF PROSTAGLANDIN REDUCTASE 2” (University of Virginia Patent Foundation, priority 2021, published 2024)", "test_in_all_cases": "SILAC LC-MS ABPP", "type_in_all_cases": "cell-based", "conditions_in_all_cases": "25 μM 2 h, live DM93 cells", "key": {"[1]": {"molecular_target": "T1, P68104 (Homo sapiens, UniProt P68104)", "T1 construct": "performing SuTEx compound screening directly in cells; endogenous in cells; host or cells: DM93 cells (SILAC)", "T1 sequence (P68104 whole entry)": "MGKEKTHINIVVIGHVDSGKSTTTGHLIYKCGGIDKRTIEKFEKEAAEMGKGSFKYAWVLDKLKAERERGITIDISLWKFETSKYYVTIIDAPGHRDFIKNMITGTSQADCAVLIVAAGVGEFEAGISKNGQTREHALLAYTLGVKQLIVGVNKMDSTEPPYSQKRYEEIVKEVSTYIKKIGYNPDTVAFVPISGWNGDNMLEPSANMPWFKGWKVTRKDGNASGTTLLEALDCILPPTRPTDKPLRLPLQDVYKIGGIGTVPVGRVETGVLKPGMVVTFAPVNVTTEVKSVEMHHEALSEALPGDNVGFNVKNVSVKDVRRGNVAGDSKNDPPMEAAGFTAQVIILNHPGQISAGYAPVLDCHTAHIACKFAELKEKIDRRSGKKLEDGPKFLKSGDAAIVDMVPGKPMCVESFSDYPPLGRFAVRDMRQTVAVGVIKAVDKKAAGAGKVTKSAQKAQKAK", "procedure,_shortened": "(§1)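 Ligand engagement is measured as loss of HHS-475 probe labelling at specific tyrosines. SILAC DM93 melanoma cells were treated in situ (25 μM ligand vs DMSO, 2 h, 37 °C; then 100 μM probe, 2 h), and modified peptides were quantified by high-resolution LC-MS/MS after desthiobiotin tagging and avidin capture.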"}, "[2]": {"molecular_target": "T2, P63241 (Homo sapiens, UniProt P63241)", "T2 construct": "performing SuTEx compound screening directly in cells; endogenous in cells; host or cells: DM93 cells (SILAC)", "T2 sequence (P63241 whole entry)": "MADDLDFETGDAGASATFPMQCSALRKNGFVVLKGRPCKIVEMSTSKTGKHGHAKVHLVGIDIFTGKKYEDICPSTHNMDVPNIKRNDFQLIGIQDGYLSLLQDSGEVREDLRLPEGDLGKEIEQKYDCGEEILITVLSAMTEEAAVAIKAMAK", "procedure,_shortened": "as §1"}, "[3]": {"molecular_target": "T3, Q9Y5K6 (Homo sapiens, UniProt Q9Y5K6)", "T3 construct": "endogenous in cells; host or cells: DM93 cells (SILAC)", "procedure,_shortened": "as §1"}, "[4]": {"molecular_target": "T4, Q9BXJ9 (Homo sapiens, UniProt Q9BXJ9)", "T4 construct": "endogenous in cells; host or cells: DM93 cells (SILAC), treated live; soluble proteome analysed", "procedure,_shortened": "as §1"}, "[5]": {"molecular_target": "T5, O43660 (Homo sapiens, UniProt O43660)", "T5 construct": "endogenous in cells; host or cells: DM93", "T5 sequence (O43660 whole entry)": "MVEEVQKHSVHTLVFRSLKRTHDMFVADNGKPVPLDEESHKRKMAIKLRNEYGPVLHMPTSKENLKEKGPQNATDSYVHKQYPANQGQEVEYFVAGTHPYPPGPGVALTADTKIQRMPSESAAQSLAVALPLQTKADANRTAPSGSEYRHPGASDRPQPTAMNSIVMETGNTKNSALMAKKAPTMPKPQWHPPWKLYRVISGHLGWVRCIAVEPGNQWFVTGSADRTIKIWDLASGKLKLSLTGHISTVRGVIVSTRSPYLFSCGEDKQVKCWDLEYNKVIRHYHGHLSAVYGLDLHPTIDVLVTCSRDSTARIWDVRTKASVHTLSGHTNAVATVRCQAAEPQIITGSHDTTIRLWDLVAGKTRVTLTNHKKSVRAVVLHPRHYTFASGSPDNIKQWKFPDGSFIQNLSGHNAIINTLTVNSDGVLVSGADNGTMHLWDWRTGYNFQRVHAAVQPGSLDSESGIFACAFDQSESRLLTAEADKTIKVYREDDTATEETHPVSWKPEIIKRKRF", "procedure,_shortened": "as §1"}, "[6]": {"molecular_target": "T6, P46940 (Homo sapiens, UniProt P46940)", "T6 construct": "endogenous in cells; host or cells: DM93 cells (SILAC)", "T6 sequence (P46940 whole entry)": "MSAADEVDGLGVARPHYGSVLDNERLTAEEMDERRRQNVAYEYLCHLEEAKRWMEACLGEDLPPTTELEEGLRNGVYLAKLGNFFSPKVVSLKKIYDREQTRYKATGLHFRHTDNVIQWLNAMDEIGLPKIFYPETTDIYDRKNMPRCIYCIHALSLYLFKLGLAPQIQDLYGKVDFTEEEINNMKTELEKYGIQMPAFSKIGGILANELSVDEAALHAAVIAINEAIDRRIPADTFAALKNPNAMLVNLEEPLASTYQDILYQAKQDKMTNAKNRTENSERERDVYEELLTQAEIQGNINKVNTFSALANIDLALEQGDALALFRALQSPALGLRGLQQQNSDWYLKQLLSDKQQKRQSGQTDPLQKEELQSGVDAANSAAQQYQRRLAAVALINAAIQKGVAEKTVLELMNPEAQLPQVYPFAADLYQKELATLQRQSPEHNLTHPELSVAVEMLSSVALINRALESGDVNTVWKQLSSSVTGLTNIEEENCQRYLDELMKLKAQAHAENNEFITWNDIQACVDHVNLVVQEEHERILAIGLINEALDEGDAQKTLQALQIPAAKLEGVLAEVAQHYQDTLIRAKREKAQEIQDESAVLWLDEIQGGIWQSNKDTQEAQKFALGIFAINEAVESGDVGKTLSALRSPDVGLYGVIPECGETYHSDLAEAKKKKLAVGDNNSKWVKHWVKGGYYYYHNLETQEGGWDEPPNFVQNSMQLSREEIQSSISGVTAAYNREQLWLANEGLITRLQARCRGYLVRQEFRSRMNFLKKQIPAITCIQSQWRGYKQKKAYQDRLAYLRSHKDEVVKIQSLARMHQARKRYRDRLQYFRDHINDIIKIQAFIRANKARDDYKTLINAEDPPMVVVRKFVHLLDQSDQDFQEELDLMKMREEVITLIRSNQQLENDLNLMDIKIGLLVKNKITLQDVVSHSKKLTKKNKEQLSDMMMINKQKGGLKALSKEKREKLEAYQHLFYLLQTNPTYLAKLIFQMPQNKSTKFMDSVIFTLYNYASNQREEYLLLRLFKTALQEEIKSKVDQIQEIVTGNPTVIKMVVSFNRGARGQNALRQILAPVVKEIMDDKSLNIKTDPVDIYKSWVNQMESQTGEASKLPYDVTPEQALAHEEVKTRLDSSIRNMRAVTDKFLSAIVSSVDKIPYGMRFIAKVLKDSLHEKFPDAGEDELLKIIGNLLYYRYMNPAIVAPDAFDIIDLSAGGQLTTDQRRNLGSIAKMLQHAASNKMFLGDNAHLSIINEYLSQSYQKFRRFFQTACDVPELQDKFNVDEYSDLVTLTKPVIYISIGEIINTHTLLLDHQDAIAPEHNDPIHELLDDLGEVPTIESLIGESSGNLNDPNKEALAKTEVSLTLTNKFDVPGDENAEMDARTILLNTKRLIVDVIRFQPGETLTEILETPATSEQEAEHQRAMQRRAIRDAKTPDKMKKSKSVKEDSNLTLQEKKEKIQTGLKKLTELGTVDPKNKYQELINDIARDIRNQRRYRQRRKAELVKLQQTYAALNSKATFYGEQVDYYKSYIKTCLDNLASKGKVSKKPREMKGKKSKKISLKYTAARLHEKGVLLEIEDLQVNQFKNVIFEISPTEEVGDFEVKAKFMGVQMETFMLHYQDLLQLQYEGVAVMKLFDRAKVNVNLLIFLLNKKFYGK", "procedure,_shortened": "as §1"}, "[7]": {"molecular_target": "T7, P02794 (Homo sapiens, UniProt P02794)", "T7 construct": "endogenous in cells; host or cells: DM93 cells (SILAC)", "T7 sequence (P02794 whole entry)": "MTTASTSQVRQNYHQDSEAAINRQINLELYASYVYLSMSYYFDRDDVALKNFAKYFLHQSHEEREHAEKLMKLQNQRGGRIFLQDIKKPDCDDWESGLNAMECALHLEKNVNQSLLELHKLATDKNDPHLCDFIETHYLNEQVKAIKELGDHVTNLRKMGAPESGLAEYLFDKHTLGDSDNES", "procedure,_shortened": "as §1"}, "[8]": {"molecular_target": "T8, Q9BTC8 (Homo sapiens, UniProt Q9BTC8)", "T8 construct": "endogenous in cells; host or cells: DM93 cells (SILAC), treated live; soluble proteome analysed", "procedure,_shortened": "as §1"}, "[9]": {"molecular_target": "T9, P06400 (Homo sapiens, UniProt P06400)", "T9 construct": "endogenous in cells; host or cells: DM93 cells (SILAC)", "procedure,_shortened": "as §1"}, "[10]": {"molecular_target": "T10, P78537 (Homo sapiens, UniProt P78537)", "T10 construct": "performing SuTEx compound screening directly in cells; endogenous in cells; host or cells: DM93 cells (SILAC)", "T10 sequence (P78537 whole entry)": "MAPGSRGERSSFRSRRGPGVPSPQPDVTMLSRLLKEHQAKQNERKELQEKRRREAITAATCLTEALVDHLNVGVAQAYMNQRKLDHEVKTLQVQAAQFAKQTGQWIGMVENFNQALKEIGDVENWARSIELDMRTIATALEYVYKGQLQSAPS", "procedure,_shortened": "as §1"}, "[11]": {"molecular_target": "T11, P53992 (Homo sapiens, UniProt P53992)", "T11 construct": "endogenous in cells; host or cells: DM93 cells (SILAC)", "procedure,_shortened": "as §1"}, "[12]": {"molecular_target": "T12, Q12965 (Homo sapiens, UniProt Q12965)", "T12 construct": "performing SuTEx compound screening directly in cells; endogenous in cells; host or cells: DM93 cells (SILAC)", "procedure,_shortened": "as §1"}, "[13]": {"molecular_target": "T13, O15318 (Homo sapiens, UniProt O15318)", "T13 construct": "endogenous in cells; host or cells: DM93", "T13 sequence (O15318 whole entry)": "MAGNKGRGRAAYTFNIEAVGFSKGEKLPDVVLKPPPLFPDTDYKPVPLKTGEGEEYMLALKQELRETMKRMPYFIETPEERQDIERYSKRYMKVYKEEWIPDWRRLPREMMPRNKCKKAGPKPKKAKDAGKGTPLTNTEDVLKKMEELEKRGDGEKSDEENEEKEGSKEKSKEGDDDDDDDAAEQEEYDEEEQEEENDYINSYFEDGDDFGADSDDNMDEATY", "procedure,_shortened": "as §1"}, "[14]": {"molecular_target": "T14, P06132 (Homo sapiens, UniProt P06132)", "T14 construct": "endogenous in cells; host or cells: DM93 cells (SILAC)", "procedure,_shortened": "as §1"}, "[15]": {"molecular_target": "T15, P51003 (Homo sapiens, UniProt P51003)", "T15 construct": "Probe-modified proteins from the soluble fraction were conjugated to a desthiobiotin-azide tag; endogenous in cells; host or cells: DM93 cells (SILAC)", "procedure,_shortened": "as §1"}, "[16]": {"molecular_target": "T16, Q13011 (Homo sapiens, UniProt Q13011)", "T16 construct": "performing SuTEx compound screening directly in cells; endogenous in cells; host or cells: DM93 cells (SILAC)", "T16 sequence (Q13011 34-328)": "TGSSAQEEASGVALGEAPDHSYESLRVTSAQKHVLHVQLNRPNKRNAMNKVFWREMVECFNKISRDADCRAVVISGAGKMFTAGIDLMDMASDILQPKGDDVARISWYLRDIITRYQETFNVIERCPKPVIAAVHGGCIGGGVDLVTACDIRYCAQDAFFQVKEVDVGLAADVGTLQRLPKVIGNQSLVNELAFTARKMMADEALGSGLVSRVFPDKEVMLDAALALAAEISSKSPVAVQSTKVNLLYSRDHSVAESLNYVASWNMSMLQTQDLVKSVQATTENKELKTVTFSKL", "procedure,_shortened": "as §1"}, "[17]": {"molecular_target": "T17, O95373 (Homo sapiens, UniProt O95373)", "T17 construct": "endogenous in cells; host or cells: DM93 cells (SILAC)", "T17 sequence (O95373 whole entry)": "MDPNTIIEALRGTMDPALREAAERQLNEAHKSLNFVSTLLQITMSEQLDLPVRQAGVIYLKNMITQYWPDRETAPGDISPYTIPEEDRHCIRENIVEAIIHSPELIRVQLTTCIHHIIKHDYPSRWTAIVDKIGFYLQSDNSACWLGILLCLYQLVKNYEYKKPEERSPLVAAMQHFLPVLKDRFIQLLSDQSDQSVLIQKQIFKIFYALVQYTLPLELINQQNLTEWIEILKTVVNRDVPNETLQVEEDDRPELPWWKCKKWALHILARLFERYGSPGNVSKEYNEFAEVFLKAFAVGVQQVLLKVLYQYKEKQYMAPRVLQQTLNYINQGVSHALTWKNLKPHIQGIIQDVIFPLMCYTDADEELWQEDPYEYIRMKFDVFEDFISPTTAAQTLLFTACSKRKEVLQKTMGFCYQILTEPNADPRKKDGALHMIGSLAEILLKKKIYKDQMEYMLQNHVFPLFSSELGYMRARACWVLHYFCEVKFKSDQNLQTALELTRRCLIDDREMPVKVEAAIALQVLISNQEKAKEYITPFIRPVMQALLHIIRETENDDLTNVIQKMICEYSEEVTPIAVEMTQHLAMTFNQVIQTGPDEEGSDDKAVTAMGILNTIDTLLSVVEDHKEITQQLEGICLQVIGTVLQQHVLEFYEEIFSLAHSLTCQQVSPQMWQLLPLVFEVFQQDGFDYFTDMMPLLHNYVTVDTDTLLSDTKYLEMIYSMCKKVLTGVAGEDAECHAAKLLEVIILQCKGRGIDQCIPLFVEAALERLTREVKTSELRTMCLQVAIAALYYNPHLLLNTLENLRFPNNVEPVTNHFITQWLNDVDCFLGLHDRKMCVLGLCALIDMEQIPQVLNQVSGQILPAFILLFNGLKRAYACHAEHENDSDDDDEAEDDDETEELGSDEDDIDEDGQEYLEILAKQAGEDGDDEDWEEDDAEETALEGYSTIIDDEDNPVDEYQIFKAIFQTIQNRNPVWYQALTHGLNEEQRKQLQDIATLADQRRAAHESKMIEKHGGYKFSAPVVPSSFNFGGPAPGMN", "procedure,_shortened": "as §1"}, "[18]": {"molecular_target": "T18, Q04837 (Homo sapiens, UniProt Q04837)", "T18 construct": "performing SuTEx compound screening directly in cells; endogenous in cells; host or cells: DM93 cells (SILAC)", "T18 sequence (Q04837 17-148)": "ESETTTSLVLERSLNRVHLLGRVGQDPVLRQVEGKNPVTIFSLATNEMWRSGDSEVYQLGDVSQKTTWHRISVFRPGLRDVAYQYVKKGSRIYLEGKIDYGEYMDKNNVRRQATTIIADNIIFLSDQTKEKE", "procedure,_shortened": "as §1"}}, "data": [{"compound": "O=C(NC1CC1)c1ccc(S(=O)(=O)n2cncn2)cc1", "note": "[HHS-0101, 4-((1H-1,2,4-triazol-1-yl)sulfonyl)-N-cyclopropylbenzamide]", "values": [{"measurement": "liganded tyrosine site 183", "setting": "[1]", "result": "HHS0101.Y (tyrosine sites that showed >80% reductions (SR >5) in probe labeling in cells treated with compounds (liganded sites))"}, {"measurement": "liganded tyrosine site 127", "setting": "[2]", "result": "HHS0101.Y|HHS0201.Y|HHS0701.Y (tyrosine sites that showed >80% reductions (SR >5) in probe labeling in cells treated with compounds (liganded sites))"}, {"measurement": "liganded tyrosine site 361", "setting": "[3]", "result": "HHS0101.Y|HHS0201.Y|HHS0401.Y (tyrosine sites that showed >80% reductions (SR >5) in probe labeling in cells treated with compounds (liganded sites))"}, {"measurement": "liganded tyrosine site 86", "setting": "[4]", "result": "HHS0101.Y|HHS0701.Y (tyrosine sites that showed >80% reductions (SR >5) in probe labeling in cells treated with compounds (liganded sites))"}]}, {"compound": "O=C(NCC1CC1)c1ccc(S(=O)(=O)n2cncn2)cc1", "note": "[HHS-0201, 4-((1H-1,2,4-triazol-1-yl)sulfonyl)-N-(cyclopropylmethyl)benzamide]", "values": [{"measurement": "liganded tyrosine site 82", "setting": "[5]", "result": "HHS0201.Y (tyrosine sites that showed >80% reductions (SR >5) in probe labeling in cells treated with compounds (liganded sites))"}, {"measurement": "liganded tyrosine site 977", "setting": "[6]", "result": "HHS0201.Y|HHS0301.Y|HHS0701.Y (tyrosine sites that showed >80% reductions (SR >5) in probe labeling in cells treated with compounds (liganded sites))"}, {"measurement": "liganded tyrosine site 13", "setting": "[7]", "result": "HHS0201.Y (tyrosine sites that showed >80% reductions (SR >5) in probe labeling in cells treated with compounds (liganded sites))"}]}, {"compound": "O=C(NC1CCCCC1)c1ccc(S(=O)(=O)n2cncn2)cc1", "note": "[HHS-0301, 4-((1H-1,2,4-triazol-1-yl)sulfonyl)-N-cyclohexylbenzamide]", "values": [{"measurement": "liganded tyrosine site 22", "setting": "[8]", "result": "HHS0301.Y (tyrosine sites that showed >80% reductions (SR >5) in probe labeling in cells treated with compounds (liganded sites))"}, {"measurement": "liganded tyrosine site 91", "setting": "[9]", "result": "HHS0301.Y|HHS0701.Y (tyrosine sites that showed >80% reductions (SR >5) in probe labeling in cells treated with compounds (liganded sites))"}, {"measurement": "liganded tyrosine site 78", "setting": "[10]", "result": "HHS0301.Y|HHS0401.Y|HHS0701.Y (tyrosine sites that showed >80% reductions (SR >5) in probe labeling in cells treated with compounds (liganded sites))"}, {"measurement": "liganded tyrosine site 300", "setting": "[11]", "result": "HHS0301.Y (tyrosine sites that showed >80% reductions (SR >5) in probe labeling in cells treated with compounds (liganded sites))"}, {"measurement": "liganded tyrosine site 9", "setting": "[12]", "result": "HHS0301.Y (tyrosine sites that showed >80% reductions (SR >5) in probe labeling in cells treated with compounds (liganded sites))"}, {"measurement": "liganded tyrosine site 43", "setting": "[13]", "result": "HHS0301.Y|HHS0401.Y (tyrosine sites that showed >80% reductions (SR >5) in probe labeling in cells treated with compounds (liganded sites))"}, {"measurement": "liganded tyrosine site 56", "setting": "[13]", "result": "HHS0301.Y (tyrosine sites that showed >80% reductions (SR >5) in probe labeling in cells treated with compounds (liganded sites))"}]}, {"compound": "O=C(NCc1ccccc1)c1ccc(S(=O)(=O)n2cncn2)cc1", "note": "[HHS-0401, 4-((1H-1,2,4-triazol-1-yl)sulfonyl)-N-benzylbenzamide]", "values": [{"measurement": "liganded tyrosine site 164", "setting": "[14]", "result": "HHS0401.Y (tyrosine sites that showed >80% reductions (SR >5) in probe labeling in cells treated with compounds (liganded sites))"}, {"measurement": "liganded tyrosine site 327", "setting": "[15]", "result": "HHS0401.Y|HHS0701.Y (tyrosine sites that showed >80% reductions (SR >5) in probe labeling in cells treated with compounds (liganded sites))"}]}, {"compound": "O=C(c1ccc(S(=O)(=O)n2cncn2)cc1)N1CCC(c2ccccc2)CC1", "note": "[HHS-0701, (4-((1H-1,2,4-triazol-1-yl)sulfonyl)phenyl)(4-phenylpiperidin-1-yl)methanone]", "values": [{"measurement": "liganded tyrosine site 149", "setting": "[16]", "result": "HHS0701.Y (tyrosine sites that showed >80% reductions (SR >5) in probe labeling in cells treated with compounds (liganded sites))"}, {"measurement": "liganded tyrosine site 416", "setting": "[17]", "result": "HHS0701.Y (tyrosine sites that showed >80% reductions (SR >5) in probe labeling in cells treated with compounds (liganded sites))"}, {"measurement": "liganded tyrosine site 455", "setting": "[17]", "result": "HHS0701.Y (tyrosine sites that showed >80% reductions (SR >5) in probe labeling in cells treated with compounds (liganded sites))"}, {"measurement": "liganded tyrosine site 101", "setting": "[18]", "result": "HHS0701.Y (tyrosine sites that showed >80% reductions (SR >5) in probe labeling in cells treated with compounds (liganded sites))"}, {"measurement": "liganded tyrosine site 119", "setting": "[18]", "result": "HHS0701.Y (tyrosine sites that showed >80% reductions (SR >5) in probe labeling in cells treated with compounds (liganded sites))"}]}]}
